Data set [1] has as its system MMP1. The following applies: cited from earlier work; for IL-1 induced increase in MMP1 expression: Nose M. et al. (1997).
The test system of data set [2] is MMP3. The following applies: cited from earlier work.
The test system of data set [3] is pristane-induced arthritis. The data set can be described thus: Pristane-induced arthritis (PIA) rat model. The format is in vivo. On the procedure:
The animals are acclimatized for approximately one week before initiation of experiment. All rats are weighed day 0, the day of disease induction, for determination of mean weight of the rats included in the experiment. Arthritis is induced by subcutaneous (s.c.) administration of 200 μl pristane on Day 0. The rats are anesthetized by inhaling a mixture of Isoba vet (3.5%) and oxygen. The root of the tail is cleaned with 70% ethanol and the oil is injected approximately 0.5 cm from the root of the tail. A slight pressure is put on the injection site for 5 seconds after injection to prevent leakage of the oil. Test compounds are administered either i.v. or p.o. (by gavage). Disease is evaluated three times per week from disease onset using a macroscopic scoring system of the four limbs ranging from 0 to 15 (1 point for each swollen or red toe, 1 point for a swollen or red mid foot digit or knuckle, 5 points for a swollen ankle) resulting in a maximum total score of 60 for each rat. The disease scoring is done in a double-blind fashion, i.e. the scorer is unaware of the treatment received by the animal. […]

For data set [4] the following is noted: therapeutically effective treatment dose level; cited from earlier work.
For data set [5], the system named is RA patients. To be noted: 15 mg/wk, cited from earlier work.
A short description of data set [6]: Pharmacokinetic cross-over study in healthy volunteers (oral / subcutaneous). The format is in vivo, human. The following applies: for absorption: after oral and subcutaneous administration. How it is done:
Administrations are separated by a wash-out period of 7-14 days. […] Plasma samples are stored at −20° C. until analysis. The primary objective of the study is to evaluate the relative bio-availability of methotrexate following its co-administration with novobiocin. Secondary objectives of the study include the overall tolerability and safety of the co-administration of a therapeutic dose of methotrexate with a non-therapeutic dose of novobiocin for both administration routes overall and in comparison, to administration of methotrexate alone.

A short description of data set [7]: Pharmacokinetics in rats after oral (gavage) or parenteral administration.
Description: (§9) In vivo study protocol—in accordance with local (Malmo, Sweden) animal ethic license number M388-12: Following acclimatization to the housing conditions for a minimum of 7 days after arrival, male Wistar (Hannover) rats (Taconic, Denmark), average weight 300 g; average age 8-10 weeks, are treated with test items (see table 1); 12-16 h prior to dosing all food except for an amount equivalent to a half day consumption is removed. The test items are administrated using a soft gavage tube (p.o.) or by injecting the test item in the tail vein (i.v). The volume given is 5 mL/kg (p.o.) or 1 mL/kg (i.v.). Before i.v administration rats are anesthetized using isoflurane. The rats are conscious during sample collection and the blood is taken from the sub-lingual vein. Blood samples are collected from each rat over a period of up to 24 h. At each time point two aliquots of 50 μL each is added to a vial containing 150 μL of sterile water. The samples are mixed immediately and stored at −18° C. until preparation for bioanalysis is commenced. All formulations are prepared on the same day that dosing takes place. The body weight of the rat is recorded before dosing. The weight of the syringe is recorded before and after administration to allow calculation of the actual amount of test sample delivered. The actual doses are used during the evaluation of the data.
(§10) Samples and standards are injected by a HTC PAL from CTC analytics into an LC system from Shimadzu consisting of a high-pressure gradient system of two LC-10 AD pumps controlled by a SCL-10A controller from Shimadzu. The samples are separated using reverse-phase chromatography with gradient elution at a flow rate of 0.8 mL/min. Mobile phases are A:94.9/5/0.1 water/acetonitrile/formic acid and B:5/94.9/0.1 water/acetonitrile/formic acid. Gradient starts at 0% B and increases linearly to 100% B in 4 minutes, 100% B is kept for 0.5 minutes and then the system returns to 0% B in 0.1 minutes. The system is equilibrated for 1.4 minutes until the total run time of 6 minutes. The eluent is analysed by a Quattro Ultima from Micromass equipped with an electrospray ion source. Data are collected, and calibrations are calculated by MassLynx 4.0 software. […] The eluent is ionized by negative ion electrospray.
(§11) The diluted blood sample (50 μL blood, 150 μL water) is thawed and mixed with 400 μL of acetonitrile, to precipitate the protein. The sample is centrifuged at 5000 g for 5 minutes and 100 μL of the supernatant is transferred to a 300 μL glass vial and 100 μL of water is added to reduce the acetonitrile concentration.
(§12) The concentration of the standard curve is in the range from 5 nM to 15625 nM. Samples with analyte concentrations above the upper limit of quantification are diluted with matrix to reach within the assay range. A non-compartmental analysis (NCA) is performed using the Phoenix WinNonLin analysis tool.
For data set [8], the system named is neutrophils. To be noted: 4 months after reaching a therapeutic dose of more than 20 mg/week; cited from earlier work.
For data set [9] the following is noted: cited from earlier work.
The conditions of data set [10]: adults; cited from earlier work.
The subject of data set [11] is neutrophils. The data set can be described thus: Induction of neutrophil apoptosis (in vitro/ex vivo model of arthritis). The format is cell-based, human. The text has this:
(§1) Apoptosis, in contrast to necrosis, is the demise of a cell through a series of controlled sequential events, resulting in an increase of anti-inflammatory mediators instead of invoking an inflammatory response, because the contents of the cell are removed by phagocytosis and not released to the direct environment. Apoptosis involves the activation of caspases, including caspase 3. Aberration in expression and/or function of the regulators of cell death through apoptosis is thought to result in pathological conditions, including autoimmune diseases and cancer. Although apoptotic cells are uncommonly observed in vivo in RA tissues, in vitro inflammatory cells from RA tissues, like synoviocytes, T-cells and macrophages, are highly susceptible to apoptosis induced through the FAS-TNF-receptor pathway. The absence of apoptotic cells in vivo may be explained by the high levels of nitric oxide in RA tissues, which inhibits caspase 3 and thus cell apoptosis.
(§2) Novobiocin is a topoisomerase II inhibitor and at therapeutically relevant concentration levels, is expected to counteract CPPD-triggered prolonged survival of neutrophils. Such a pharmacodynamic effect of Novobiocin may be quantified either through activity (levels) of caspase 3, an apoptotic cleavage enzyme, or cytoplasmic histone-associated-DNA fragmentation assessment, using commercially available kits.
(§3) In the latter model, the effect on neutrophil apoptosis can be either studied directly, or indirectly, exposing the cells in vitro to a challenge that prolongs their survival (e.g. CPPD crystals).
(§4) CPPD (Ca2P2O7.2H2O; triclinic form) crystals can be obtained using well described methods (Burt H M et al. 1989; Gras P. et al. 2013). Plasma protein coating of the crystals is achieved through incubation of the crystals in 50% plasma (Tudan C et al. 2003). The CPPD crystals are used in experiments with neutrophils from healthy control individuals/animals to mimic arthritic disease.
(§5) Neutrophils are separated from fresh human (healthy control/patient) or rat (healthy control; disease model) blood using standard methods and suspended in buffer at a concentration of 1×10^6 cells/ml. The cells are incubated at 37° C. with occasional tumbling.
(§6) Stock solutions of TNFalpha, Methotrexate and Novobiocin are prepared in DMSO, keeping the DMSO concentrations in the cell suspensions below 0.1% during the experiment. The apoptosis rate following the administration of vehicle without active agent (negative control) represents the baseline rate of apoptosis (no effect level), while the apoptosis rate following the administration of TNFalpha (positive control) represents the maximum rate of apoptosis (100% effect level).

Data set [12] concerns neutrophils. The data set is described as above. The format is cell-based, rat.
Description: as §1, §2, §3, §4, §5, §6

For data set [13] the following is noted: rodents; cited from earlier work.
In data set [14] the test system is MMP1 (collagenase). The data set can be described thus: IL-1 induced mRNA upregulation of MMP1 in primary chondrocyte culture. To be noted: concentrations <100 uM. The format is cell-based, calf. How it is done:
(§7) Primary chondrocyte culture was freshly isolated from calf cartilage. The cells were plated (at 2.5×10^6 per mL) in 100×20 mm culture dishes and incubated in Ham's F12 medium containing 5% fetal bovine serum (FBS) overnight at 37° C. The cells were starved with serum-free medium overnight. The cells were pretreated with MTX, NOV or a combination of MTX with 1, 2, 10 or 20 eq of NOV for 6 hours. Then IL-1 (20 ng/mL) was added to each plate and the plates were incubated for an additional 18 h.
(§8) Total RNA was isolated by the acidified guanidine isothiocyanate method and subjected to electrophoresis on a denatured gel. Denatured RNA samples were analyzed by gel electrophoresis in a 1% denaturing gel, transferred to a nylon membrane and hybridized respectively with the ^32P-cDNA probes for MMP1, MMP3 and proteoglycan and analyzed.

For data set [15] the following is noted: cited from earlier work. This is another data set of the same source.
For data set [16], the target named is T1, plasma albumin (Homo sapiens, UniProt P02768).
T1 construct: host or cells: human plasma
To be noted: in men; cited from earlier work.

Data set [17] deals with MMP3 (stromelysin1). The data set can be described thus: IL-1 induced mRNA upregulation of MMP3 in primary chondrocyte culture. The format is cell-based. To be noted: calf chondrocytes, IL-1 20 ng/mL; concentrations <100 uM. How it is done:
as §7, §8

For data set [18] the following is noted: rat, in vivo.
Description: as §9, §10, §11, §12
The mark [19] stands for this setting: male, Wistar (Hannover), rat, whole blood, po, 2 mg/kg.
[20] abbreviates: at 1×10^−7 M, Jackson J K et al. (2008).
[21] abbreviates: neutrophils from healthy subjects, concentrations <60 uM.
Setting [22] is: neutrophils from healthy rat, concentrations <60 uM.
Where [23] appears, read: male, Wistar (Hannover), rat, whole blood, ip, 5.5 mg/kg.
The mark [24] stands for this setting: male, Wistar (Hannover), rat, whole blood, po, 55 mg/kg.

Where two headings read alike, the source gives them in different places.

T1 sequence (P02768 25-609): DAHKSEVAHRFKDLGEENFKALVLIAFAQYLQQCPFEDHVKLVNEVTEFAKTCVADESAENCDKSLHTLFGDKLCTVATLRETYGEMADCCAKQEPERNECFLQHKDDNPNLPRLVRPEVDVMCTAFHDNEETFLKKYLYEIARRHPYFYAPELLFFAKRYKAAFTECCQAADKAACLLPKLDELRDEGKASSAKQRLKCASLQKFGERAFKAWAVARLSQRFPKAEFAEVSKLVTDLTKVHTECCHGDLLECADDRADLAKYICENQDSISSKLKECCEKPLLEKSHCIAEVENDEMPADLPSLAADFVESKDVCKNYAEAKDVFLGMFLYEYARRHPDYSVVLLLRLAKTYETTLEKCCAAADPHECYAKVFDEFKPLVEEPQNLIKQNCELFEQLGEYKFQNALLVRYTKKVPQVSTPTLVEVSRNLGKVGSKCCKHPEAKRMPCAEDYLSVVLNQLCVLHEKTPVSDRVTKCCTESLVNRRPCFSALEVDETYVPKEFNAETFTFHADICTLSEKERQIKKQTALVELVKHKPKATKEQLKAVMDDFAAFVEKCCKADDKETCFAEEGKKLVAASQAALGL

With `O=C(O)c1cc(/N=N/c2ccc(S(=O)(=O)Nc3ccccn3)cc2)ccc1O` [Sulfasalazin], the “IL-1 induced increase in MMP1 expression” value in [1] is listed as “suppressed”. Moreover, the “IL-1 induced increase in MMP3 expression” value in [2] (Nose M. et al. (1997)) is given as “suppressed”.
On to `CN(Cc1cnc2nc(N)nc(N)c2n1)c1ccc(C(=O)N[C@@H](CCC(=O)O)C(=O)O)cc1` [methotrexate, N-[4-[[(2,4-diamino-6-pteridinyl)methyl]methylamino]benzoyl]-L-glutamic acid], for which the “IL-1 induced increase in MMP1 expression” value in data set [1] is recorded as “suppressed”. In addition, in data set [3] (0.1 mg/kg every third day from day 7 (i.v.)), the “inflammatory effects of pristane” value is on record as “completely ameliorated”. The “patient population in which treatment needs to be terminated due to intolerability” value in [4] is given as “about 30%”. The “treatment success, RA patients” value in data set [5] (oral application route) is 24%. Also, the “treatment success, RA patients” value in data set [5] (sc application route) is recorded as 34%. Moreover, the “maximum concentrations and total plasma concentrations, sub cutaneous versus oral administration” value in [6] (15 mg methotrexate alone) is recorded as “higher”. Besides, in data set [6] (healthy volunteers), the absorption result was “rapidly absorbed” and the “time to maximum plasma concentrations, sub cutaneous route versus oral route” value is “reached faster”. In addition, in data set [7] (setting [19]), the total exposure AUC(0-inf) stood at 0.923 µM·h, the AUC(0-t) was determined as 0.759 µM·h and the Cmax turned out to be 277 nM. Moreover, in data set [8], the “neutrophil apoptosis in RA patients” value is “restoration of neutrophil apoptosis to healthy control levels”. For the same compound, the “time within which non-polyglutamated methotrexate is excreted in the urine after administration” value in data set [9] (in vivo) was at most 12 h. Also, the systemic bioavailability entry in [9] (man, oral dose) was “approximately 73%”. Further, the bioavailability result in data set [9] (subcutaneous (sc) administration) was “approx. 95%”.
In the case of `CC[C@@]1(O)C(=O)OCc2c1cc1n(c2=O)Cc2cc3ccccc3nc2-1` [Camptothecin], the “IL-1 induced increase in MMP1 mRNA expression” value in [1] (setting [20]) is listed as “almost completely inhibited”. In data set [2] (setting [20]), the “IL-1 induced increase in MMP3 mRNA expression” value is recorded as “almost completely inhibited”.
For `CO[C@@H]1[C@@H](OC(N)=O)[C@@H](O)[C@H](Oc2ccc3c(O)c(NC(=O)c4ccc(O)c(CC=C(C)C)c4)c(=O)oc3c2C)OC1(C)C` [novobiocin, 4-hydroxy-3-[4-hydroxy-3-(3-mehtylbut-2-enyl)benzamido]-8-methylcoumarin-7-yl 3-O-carbamoyl-5,5-di-C-methyl-alpha-L-lyxofuranoside], the “therapeutic effect on the pristane-induced arthritis” value in [3] (daily per oral administration of up to 80 mg/kg from day 11 to 21 (after onset of disease)) was “no therapeutic effect”. Further, the “maximum tolerated dose (MTD)” value in [10] is 4 g/day. For the same compound, the “effect of NOV on CPPD-induced prolonged survival” value in [11] (neutrophils from healthy controls (human), control = base line, TNFalpha is 100% effect, concentrations <50 uM) is listed as “No pharmacodynamic effects”. Besides, in data set [11] (setting [21]), the “pharmacodynamic effects on CPPD-induced prolonged survival” value is on record as “No pharmacodynamic effects” and the “pharmacodynamic effects on neutrophil apoptosis” value is listed as “No pharmacodynamic effects”. Further, the “pharmacodynamic effects on neutrophil apoptosis” value in data set [11] (neutrophils from patients with rheumatoid arthritis, concentrations <60 uM) is recorded as “No pharmacodynamic effects”. The “pharmacodynamic effects on neutrophil apoptosis” value in data set [12] (neutrophils from disease model animals (PIA rat), concentrations <60 uM) is reported as “No pharmacodynamic effects”. The “effect of NOV on CPPD-induced prolonged survival” value in data set [12] (neutrophils from healthy controls (rat), control = base line, TNFalpha is 100% effect, concentrations <50 uM) is recorded as “No pharmacodynamic effects”. In data set [12] (setting [22]), the “pharmacodynamic effects on CPPD-induced prolonged survival” value is reported as “No pharmacodynamic effects” and the “pharmacodynamic effects on neutrophil apoptosis” value is “No pharmacodynamic effects”. Besides, the oral availability result in data set [13] was “about 30%”. In data set [6] (healthy volunteers), the absorption result was “rapidly absorbed”; the “plasma levels versus levels at which any pharmacodynamic effects can be observed in non-clinical models of disease” value is listed as “remain well below”; the “time to maximum plasma concentrations, sub cutaneous route versus oral route” value was “reached faster”. Moreover, the “pharmacodynamic effects on the IL-1 induced mRNA upregulation of MMP1” value in data set [14] (calf chondrocytes, IL-1 20 ng/mL) is “No pharmacodynamic effects”. Besides, the “additional pharmacodynamic effects on the inhibition of the IL-1 induced mRNA upregulation of MMP1 by MTX” value in data set [14] (novobiocin added to MTX) is reported as “No additional pharmacodynamic effects”. Besides, the “dose excreted unaltered in the urine” value in data set [15] (Wright W. W. et al., 1956) is on record as “About 3%”. Moreover, the “oral dose excreted in the faeces” value in data set [15] (hepatic/biliary excretion) is “about 30%”. Moreover, in [16], the “bound to plasma albumin” value was 99.2%. In data set [7] (setting [23]), the total exposure AUC(0-inf) turned out to be 25500 ng·h/mL, the Cmax was determined as 9600 ng/mL and the Tmax is 0.9 h. In addition, in data set [7] (setting [24]), the AUC(0-inf) was found to be 110000 ng·h/mL, the AUC(0-t) turned out to be 110 µg·h/mL, the Cmax is 23300 ng/mL and the Tmax came out at 1.8 h. The Cmax in data set [7] (oral administration (gavage; 55 mg/kg)) is 23300 ng/mL. In addition, in data set [17], the “pharmacodynamic effects on the IL-1 induced mRNA upregulation of MMP3” value is “No pharmacodynamic effects”. The linearity of pharmacokinetics result in data set [18] is “linear”.

The AUC(0-inf) is the area under the concentration-time curve extrapolated to infinity. The term AUC(0-t) denotes the area under the concentration-time curve up to a stated or last time point. The term Cmax denotes the maximum level reached in the sampled fluid or tissue. What is called Tmax is the time from dosing to the highest level.

These data come from US11883405B2, “Pharmaceutical composition comprising a combination of methotrexate and novobiocin, and the use of said composition in therapy” (Amplio Pharma AB, priority 2017, dated 2024).
